Test results published in ChEMBL document CHEMBL4418496, “Inhibitors of crl4 ubiquitin ligase and uses thereof” (2014).
pIC50: −log10 of the molar value. Each block holds one molecule with its values, some of them ahead of it. Activity calls are given as the source filed them. The calls are words filed in the database; no cut-off is given here. Where a SMILES comes first, the peptide text is derived from it. The star is where a group is joined. Cbz = O=C(OCc1ccccc1)*

Legend:
Cullin-4A (Mus musculus) [1] = target: Cullin-4A (Mus musculus) (UniProt Q3TCH7); assay: Inhibition of CUL4A in mouse MEF cells stably expressing FL FLAG-tagged DDB2 assessed as reduction in F-DDB2 degradation incubated for 2 hrs before irradiated with 10 J/m2 UV irradiation; assay type: cell-based
Proteasome = assay: Inhibition of proteasome in mouse MEF cells stably expressing FL FLAG-tagged DDB2 assessed as reduction in F-DDB2 degradation incubated for 2 hrs before irradiated with 10 J/m2 UV irradiation
Cullin-4B (Homo sapiens) = Cullin-4B (Homo sapiens) (UniProt Q13620); assay: Inhibition of CUL4B in human MCF7 cells assessed as reduction in 3-methylcholanthrene-induced androgen receptor degradation at 50 uM; assay type: cell-based
Cullin-1 (Homo sapiens) = Cullin-1 (Homo sapiens) (UniProt Q13616); assay: Inhibition of CUL1 in human U20S cells assessed as reduction in TNF-alpha-induced IkappaB-alpha degradation at 50 uM incubated for 2 hrs followed by TNFalpha stimulation for 15 mins by Western blotting analysis; assay type: cell-based
Cullin-4A [2] = target: T1, Cullin-4A (Homo sapiens, UniProt Q13619); assay: Inhibition of GST-tagged CUL4A/Rbxl ubiquitin ligase activity (unknown origin) assessed as reduction in reconstituted DDB1 ubiquitination in presence of ubiquitin, El, E2 and DDB1 incubated for 1 hr by Western blotting analysis
Cullin-4A (Mus musculus) [3] = target: Cullin-4A (Mus musculus) (UniProt Q3TCH7); assay: Inhibition of CUL4A in mouse MEF cells stably expressing FL FLAG-tagged DDB2 assessed as reduction in F-DDB2 degradation incubated for 2 hrs before irradiated with 10 J/m2 UV irradiation relative to control; assay type: cell-based
Cullin-4A [4] = target: T1, Cullin-4A; assay: Inhibition of CUL4A in human HCT116 cells assessed as promotion of UV-damaged DNA repair by measuring enhancement of 6,4-photoproducts removal pre-incubated for 2 hrs before UV-irradiation by ELISA; assay type: cell-based

Cullin-1 (Homo sapiens), sequence (Q13616 whole entry): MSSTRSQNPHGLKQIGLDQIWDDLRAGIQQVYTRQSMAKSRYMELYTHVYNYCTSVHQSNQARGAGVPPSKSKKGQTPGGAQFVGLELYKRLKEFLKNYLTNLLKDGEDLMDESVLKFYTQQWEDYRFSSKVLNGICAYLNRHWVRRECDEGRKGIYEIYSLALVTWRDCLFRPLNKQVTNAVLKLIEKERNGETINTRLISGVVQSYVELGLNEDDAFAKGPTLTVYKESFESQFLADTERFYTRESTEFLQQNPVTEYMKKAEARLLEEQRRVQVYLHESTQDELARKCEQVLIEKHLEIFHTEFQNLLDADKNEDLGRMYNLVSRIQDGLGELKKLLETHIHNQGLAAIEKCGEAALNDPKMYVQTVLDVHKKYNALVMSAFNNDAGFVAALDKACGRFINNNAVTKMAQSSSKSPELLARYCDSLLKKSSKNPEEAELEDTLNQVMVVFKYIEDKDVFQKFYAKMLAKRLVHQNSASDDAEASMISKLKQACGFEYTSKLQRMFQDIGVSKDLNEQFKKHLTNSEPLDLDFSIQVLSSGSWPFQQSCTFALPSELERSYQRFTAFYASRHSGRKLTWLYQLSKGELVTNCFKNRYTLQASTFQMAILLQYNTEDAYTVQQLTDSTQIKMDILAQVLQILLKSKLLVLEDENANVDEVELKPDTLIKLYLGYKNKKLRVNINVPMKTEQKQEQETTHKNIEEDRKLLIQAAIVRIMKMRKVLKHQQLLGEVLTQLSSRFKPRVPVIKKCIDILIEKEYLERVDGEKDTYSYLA
T1 sequence (Q13619 whole entry): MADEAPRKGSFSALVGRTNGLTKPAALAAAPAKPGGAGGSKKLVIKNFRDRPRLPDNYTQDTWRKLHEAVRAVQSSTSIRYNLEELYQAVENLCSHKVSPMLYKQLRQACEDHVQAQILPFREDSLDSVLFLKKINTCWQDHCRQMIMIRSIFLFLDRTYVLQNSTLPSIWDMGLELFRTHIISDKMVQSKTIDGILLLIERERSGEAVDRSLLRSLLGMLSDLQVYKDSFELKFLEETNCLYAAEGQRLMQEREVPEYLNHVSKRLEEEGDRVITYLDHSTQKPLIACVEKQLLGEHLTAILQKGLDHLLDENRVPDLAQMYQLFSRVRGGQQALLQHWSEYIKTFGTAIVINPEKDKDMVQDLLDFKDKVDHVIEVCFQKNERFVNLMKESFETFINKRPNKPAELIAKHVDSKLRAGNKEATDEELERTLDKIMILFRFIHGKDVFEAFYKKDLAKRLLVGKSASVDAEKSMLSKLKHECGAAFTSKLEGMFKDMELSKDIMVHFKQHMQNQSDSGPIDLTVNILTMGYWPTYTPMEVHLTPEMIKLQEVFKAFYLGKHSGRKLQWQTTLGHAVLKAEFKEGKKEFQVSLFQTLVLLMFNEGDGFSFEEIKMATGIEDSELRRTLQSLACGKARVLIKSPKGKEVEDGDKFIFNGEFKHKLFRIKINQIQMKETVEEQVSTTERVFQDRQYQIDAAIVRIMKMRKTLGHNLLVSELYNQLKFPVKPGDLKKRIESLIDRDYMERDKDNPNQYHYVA
Cullin-4B (Homo sapiens), sequence (Q13620 whole entry): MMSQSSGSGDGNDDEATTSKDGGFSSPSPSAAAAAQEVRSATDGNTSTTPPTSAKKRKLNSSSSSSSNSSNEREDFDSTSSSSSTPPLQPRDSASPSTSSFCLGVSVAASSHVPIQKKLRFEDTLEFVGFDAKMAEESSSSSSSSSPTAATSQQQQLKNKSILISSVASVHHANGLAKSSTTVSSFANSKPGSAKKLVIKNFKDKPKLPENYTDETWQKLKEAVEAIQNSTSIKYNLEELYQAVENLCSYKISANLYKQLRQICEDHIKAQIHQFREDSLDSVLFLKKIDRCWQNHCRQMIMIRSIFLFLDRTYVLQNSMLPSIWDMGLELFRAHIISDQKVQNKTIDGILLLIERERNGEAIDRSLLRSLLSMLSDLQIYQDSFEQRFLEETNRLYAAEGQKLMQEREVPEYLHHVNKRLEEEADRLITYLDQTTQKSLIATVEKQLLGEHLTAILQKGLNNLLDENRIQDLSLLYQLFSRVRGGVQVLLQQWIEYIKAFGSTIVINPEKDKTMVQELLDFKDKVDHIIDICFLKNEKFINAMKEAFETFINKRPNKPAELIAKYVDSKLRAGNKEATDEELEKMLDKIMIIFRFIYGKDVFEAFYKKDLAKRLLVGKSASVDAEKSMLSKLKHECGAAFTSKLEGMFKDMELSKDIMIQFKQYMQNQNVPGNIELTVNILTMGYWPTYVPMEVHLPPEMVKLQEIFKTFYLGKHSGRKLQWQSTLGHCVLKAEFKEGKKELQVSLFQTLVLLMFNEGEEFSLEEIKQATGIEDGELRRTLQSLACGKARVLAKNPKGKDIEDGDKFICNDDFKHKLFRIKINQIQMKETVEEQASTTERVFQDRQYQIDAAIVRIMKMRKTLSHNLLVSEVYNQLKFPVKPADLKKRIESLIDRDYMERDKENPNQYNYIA
Cullin-4A (Mus musculus), sequence (Q3TCH7 whole entry): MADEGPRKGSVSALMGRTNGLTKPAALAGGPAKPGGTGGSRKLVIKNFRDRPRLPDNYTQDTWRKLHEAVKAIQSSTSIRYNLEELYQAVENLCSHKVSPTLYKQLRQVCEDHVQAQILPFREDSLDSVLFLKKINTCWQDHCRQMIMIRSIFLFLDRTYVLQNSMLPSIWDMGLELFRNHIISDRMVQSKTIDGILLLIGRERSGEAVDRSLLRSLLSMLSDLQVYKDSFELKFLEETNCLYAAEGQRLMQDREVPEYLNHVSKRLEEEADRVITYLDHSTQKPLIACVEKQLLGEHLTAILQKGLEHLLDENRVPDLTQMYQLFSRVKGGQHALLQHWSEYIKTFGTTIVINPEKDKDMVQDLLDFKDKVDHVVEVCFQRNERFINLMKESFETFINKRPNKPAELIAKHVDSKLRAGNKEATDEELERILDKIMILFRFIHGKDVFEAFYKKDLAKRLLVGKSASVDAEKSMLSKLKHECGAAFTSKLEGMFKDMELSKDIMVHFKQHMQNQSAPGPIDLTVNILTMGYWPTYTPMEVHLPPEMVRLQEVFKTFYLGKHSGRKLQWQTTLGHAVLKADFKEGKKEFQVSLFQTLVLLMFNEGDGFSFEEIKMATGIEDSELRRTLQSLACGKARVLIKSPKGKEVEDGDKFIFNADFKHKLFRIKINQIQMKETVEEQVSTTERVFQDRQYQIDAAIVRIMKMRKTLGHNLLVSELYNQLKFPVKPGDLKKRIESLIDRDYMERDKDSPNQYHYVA

Compound: CCOC(=O)Oc1c(Cl)cc2oc(=O)sc2c1Cl
inhibition (active/inactive call) (Cullin-4A (Mus musculus) [1]): Active

Compound: CC(C)C[C@@H](C=O)NC(=O)[C@H](CC(C)C)NC(=O)[C@H](CC(C)C)NC(=O)OCc1ccccc1 (Cbz-Leu-Leu-Leu-aldehyde)
inhibition (Proteasome): Active

Compound: N#CC1=C(N)SC(N)=C(C#N)C1c1cccs1
inhibition (Cullin-4B (Homo sapiens)): inactive
inhibition (Cullin-1 (Homo sapiens)): inactive
inhibition (active/inactive call) (Cullin-4A (Mus musculus) [1]): Active

pIC50 (Cullin-4A [2]): < 4.30
Compound: N#CC1=C(N)SC(N)=C(C#N)C1c1ccc(C(F)(F)F)cc1

Compound: Clc1ccc2nc(Cl)c3nnnn3c2c1
inhibition (active/inactive call) (Cullin-4A (Mus musculus) [1]): Active

pIC50 (Cullin-4A [2]): 6.00
Compound: COc1ccc(-c2c3c([nH]c(=S)c2C#N)CCC3)cc1

Compound: CC(C)c1nnc(S)n1-c1ccc(Cl)c(Cl)c1
inhibition (Cullin-4B (Homo sapiens)): inactive
pIC50 (Cullin-4A [2]): > 6.62
inhibition (active/inactive call) (Cullin-4A (Mus musculus) [1]): Active

Compound: COc1ccc(-c2nnc(S)n2-c2ccc(C)cc2)cc1
inhibition (Cullin-4B (Homo sapiens)): inactive
pIC50 (Cullin-4A [2]): 5.62
inhibition (active/inactive call) (Cullin-4A (Mus musculus) [1]): Active

Compound: O=[N+]([O-])c1c(Cl)ncnc1N1CCCCC1CO (stereo not drawn)
inhibition (active/inactive call) (Cullin-4A (Mus musculus) [1]): Active

Compound: N#CC1=C(N)SC(N)=C(C#N)C1c1ccccc1F
inhibition (Cullin-4B (Homo sapiens)): inactive
inhibition (Cullin-4A (Mus musculus) [3]): Dose-dependent effect
inhibition (Cullin-1 (Homo sapiens)): inactive
inhibition (active/inactive call) (Cullin-4A (Mus musculus) [1]): Active
inhibition (Cullin-4A [4]): Active

Compound: CCOC(=O)Oc1cc2oc(=O)sc2cc1Cl
inhibition (active/inactive call) (Cullin-4A (Mus musculus) [1]): Active

pIC50 (Cullin-4A [2]): 6.26
Compound: N#Cc1c(-c2ccco2)c2c([nH]c1=S)CCCC2

pIC50 (Cullin-4A [2]): 5.57
Compound: N#Cc1c(-c2ccncc2)c2c([nH]c1=S)CCCC2

pIC50 (Cullin-4A [2]): 5.43
Compound: N#CC1=C(N)SC(N)=C(C#N)C1CCc1ccccc1

Compound: COc1nsc(I)c1C#N
inhibition (Cullin-4B (Homo sapiens)): inactive
inhibition (active/inactive call) (Cullin-4A (Mus musculus) [1]): Active

Compound: Sc1nnc(C2CC2)n1-c1ccc(Cl)c(Cl)c1
inhibition (Cullin-4B (Homo sapiens)): inactive
pIC50 (Cullin-4A [2]): 3.15
inhibition (active/inactive call) (Cullin-4A (Mus musculus) [1]): Active

Compound: COC(=O)Oc1cc2oc(=O)sc2cc1Cl
inhibition (active/inactive call) (Cullin-4A (Mus musculus) [1]): Active

Compound: N#Cc1c(S)nc2c(c1-c1ccco1)CCCC2
inhibition (Cullin-4B (Homo sapiens)): inactive
inhibition (Cullin-4A (Mus musculus) [3]): Dose-dependent effect
inhibition (Cullin-1 (Homo sapiens)): inactive
inhibition (active/inactive call) (Cullin-4A (Mus musculus) [1]): Active
inhibition (Cullin-4A [4]): Active

pIC50 (Cullin-4A [2]): 3.16
Compound: N#CC1=C(N)SC(N)=C(C#N)C1c1cc(Br)ccc1F

Compound: COc1ccc(-c2c3c([nH]c(=S)c2C#N)CCCC3)cc1
inhibition (Cullin-4B (Homo sapiens)): inactive
inhibition (Cullin-1 (Homo sapiens)): inactive
inhibition (active/inactive call) (Cullin-4A (Mus musculus) [1]): Active

Compound: CC(=O)CN1C(=O)C(=O)c2cc(Br)ccc21
inhibition (active/inactive call) (Cullin-4A (Mus musculus) [1]): Active

Compound: COc1ccc(-c2c(C#N)c(S)nc3c2CCC3)cc1
inhibition (Cullin-4B (Homo sapiens)): inactive
inhibition (Cullin-1 (Homo sapiens)): inactive
inhibition (active/inactive call) (Cullin-4A (Mus musculus) [1]): Active

pIC50 (Cullin-4A [2]): > 6.62
Compound: COC(=O)Oc1c(Br)c(C)c2oc(=O)sc2c1Br

Compound: O=c1oc2c(Br)c(O)c(Br)cc2s1
inhibition (Cullin-4B (Homo sapiens)): inactive
inhibition (active/inactive call) (Cullin-4A (Mus musculus) [1]): Active

Compound: CC1(C)Cc2c(c(N3CCNCC3)[nH]c(=S)c2C#N)CO1
inhibition (active/inactive call) (Cullin-4A (Mus musculus) [1]): Active

Compound: CNC(=O)Oc1c(Br)cc2sc(=O)oc2c1Br
pIC50 (Cullin-4A [2]): > 6.62

Compound: COC(=O)c1sc(=S)n(-c2ccc(F)cc2F)c1N
inhibition (active/inactive call) (Cullin-4A (Mus musculus) [1]): Active

Compound: N#CC1=C(N)SC(N)=C(C#N)C1c1ccco1
inhibition (Cullin-4B (Homo sapiens)): inactive
inhibition (Cullin-1 (Homo sapiens)): inactive
inhibition (active/inactive call) (Cullin-4A (Mus musculus) [1]): Active

Compound: CCOC(=O)Oc1cc2oc(=O)sc2cc1Br
inhibition (active/inactive call) (Cullin-4A (Mus musculus) [1]): Active
